In assay [1] the target is T1, GRABeCB2.0 sensor (Homo sapiens, UniProt P21554, S383T, form not given). The assay is classed as cell-based. The text has this: (§1) Stable eCB2.0 sensor cell line: A stable sensor cell line was established in HEKtsA201 cells (Sigma-Aldrich, St. Louis, MO, USA) using the PiggyBac Transposon-based system (SBI, Palo Alto, CA, USA). Briefly, the open reading frame of the eCB2.0 sensor from eCB2.0 to C1^20 was cloned into the PB514B shuttle vector using In Fusion cloning (Takara, San Jose, CA, USA). The modified shuttle sequence was obtained with Sanger sequencing (Psomagen, Rockville, MD, USA) and verified (MacVector, Apex, NC, USA). HEKtsA201 cells were maintained in DMEM (Thermo Fisher, Waltham, MA, USA: Gibco #10569-010) supplemented with 10% fetal bovine serum (Gibco #A31605-01) and 1% penicillin/streptomycin (Gibco #15140-122) at 37 °C and 8% CO2. Cells were plated on 12-well tissue culture plates at approximately 50% confluency. This low cell density was used to avoid overgrowth of the cells during the delay between transfection and selection for stable integration. After 3 h, the eCB2.0 shuttle was co-transfected at a plasmid mass ratio of 10:1 with the SBI Transposase vector (PB210PA) using deacylated PEI [71]. All transfected wells were checked the next day for expression of the sensor by presence of basal cpeGFP fluorescence. […] Wells were selected for integration beginning at 4 days post transfection with […] Puromycin (Gibco #A11138-03). Selection was continued throughout all passages of the stable line. Cells were transferred to T25 (25 cm^2) tissue culture flasks after 10 to 14 days of selection.
T1 sequence (P21554 whole entry S383T, looked up, form open, the tested form may be a part): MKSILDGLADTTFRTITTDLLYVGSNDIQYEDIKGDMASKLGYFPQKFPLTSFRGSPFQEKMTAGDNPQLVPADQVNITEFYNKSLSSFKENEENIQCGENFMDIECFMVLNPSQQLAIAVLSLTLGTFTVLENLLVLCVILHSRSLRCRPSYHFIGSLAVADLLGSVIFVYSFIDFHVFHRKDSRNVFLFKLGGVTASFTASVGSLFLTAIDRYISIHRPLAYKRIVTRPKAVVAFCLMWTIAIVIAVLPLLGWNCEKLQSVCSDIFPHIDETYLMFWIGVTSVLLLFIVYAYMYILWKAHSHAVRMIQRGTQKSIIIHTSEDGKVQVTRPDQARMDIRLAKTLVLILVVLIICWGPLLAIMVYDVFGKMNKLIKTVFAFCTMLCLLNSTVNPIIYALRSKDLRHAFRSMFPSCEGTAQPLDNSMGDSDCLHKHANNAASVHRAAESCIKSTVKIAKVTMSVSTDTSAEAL
Assay Procedure: The DMEM solution was removed from the T25 flat-sided cell culture flask by decantation. […] A total of 7 mL of fresh DMEM was added, and cells were gently pipetted to remove any remaining cells from the flask wall. The total volume (10 mL) was transferred to a 15 mL Falcon tube and centrifuged at 800× g for 4 min at 23 °C. Upon completion of centrifugation, the supernatant was removed and discarded, leaving behind a small pellet of cells that were resuspended in 4 mL of fresh DMEM. The cell suspension was mixed in a 1:1 ratio with 0.4% TrypanBlue ([…] each) and […] solution was added to each side of a Countess Cell Counting Chamber and inserted into the Countess II Automated Cell Counter (Thermo Fisher, Waltham, MA, USA). The concentration of cells as adjusted to 0.7–1.0 million cells/mL with DMEM complete media and […] was added to the desired wells of a clear bottom black plastic tissue culture treated 96-well plate. The plate was incubated at 37 °C and 8% CO2 for a 24–48 h period. After incubation, the […] DMEM buffer was removed and replaced with […] of DPBS buffer containing calcium and magnesium (Gibco #14040-133). After the addition of the DPBS buffer, a baseline reading of the cells was taken using the PHERAstar FSX microplate reader (BMG/Labtech, Cary, NC, USA) to establish the F0 or initial fluorescence (see Figure 1A,B).
When running the assay for an agonist, […] of the compound and […] of additional DPBS buffer was added to the wells. A concentration curve was made for the modulator with the final concentrations in the wells holding the cells ranging from 1 pM to 10 mM with 1% DMSO BSA in a total volume of […]. […] In either assay, the cannabinoid ligands were added, followed by incubation of the compound on the cells at 37 °C for 5 min before taking a fluorescence reading using the PHERAstar FSX microplate reader equipped with a GFP filter cube module (Ex. 485 nm/Em. 520 nm). The recorded values were the F or final fluorescence.
For reported allosteric modulators, the binding assay was modified to test the ligand for basal activity, followed by the addition of the agonist, similar to the antagonist assay.

Another assay addresses CB1R. Particulars: cited from earlier work.
Another assay has as its target CB1 receptor. Conditions: cited from earlier work.
The target in assay [2] is T1, GRABeCB2.0 sensor. The assay is classed as cell-based. Conditions: for Effect on CP55940 fluorescence signal/maximal fluorescence: modulator 1 μM, varying CP55940. How it is done:
For reported allosteric modulators, the binding assay was modified to test the ligand for basal activity, followed by the addition of the agonist, similar to the antagonist assay. […] The compound of interest was varied across concentrations ranging (as the case may be) from 1 nM, 3 nM, 10 nM, 30 nM, 100 nM, 300 nM, 1 μM, and 10 μM and performed in triplicate. The concentration of the compound depended on the modulator itself. The concentrations calculated were the final concentration inside the well of the 96-well plate, along with the 1% DMSO and 0.5 mg/mL BSA (See Supplementary Materials, Figure S1).
Statistical Methods: All GRABeCB2.0 fluorescent signals (in cases noted) are expressed as normalized ΔF/F0 as calculated for the fluorescence assay in the PHERAstar FSX Plate reader. EC50/IC50 values were calculated using GraphPad Prism 9 by fitting data to a nonlinear regression model with normalized variable slope (four parameters, normalized where indicated) or using three-parameter response. Data represent mean ± SEM from a minimum of at least three independent experiments performed in triplicates.

Assay [3] deals with T1, GRABeCB2.0 sensor. Particulars: increasing concentrations; cited from earlier work.
The target of assay [4] is T1, GRABeCB2.0 sensor. It counts as cell-based. Particulars: for Effect on GRABeCB2.0 basal fluorescence: no agonist; for EC50: HEK293 cells, without BSA, ΔF/F0 4-5 min, read-out: EC50 at inducing GRABeCB2.0 fluorescent signal.
Excerpt: as §1
Assay Procedure: The DMEM solution was removed from the T25 flat-sided cell culture flask by decantation. […] A total of 7 mL of fresh DMEM was added, and cells were gently pipetted to remove any remaining cells from the flask wall. The total volume (10 mL) was transferred to a 15 mL Falcon tube and centrifuged at 800× g for 4 min at 23 °C. […] After the addition of the DPBS buffer, a baseline reading of the cells was taken using the PHERAstar FSX microplate reader (BMG/Labtech, Cary, NC, USA) to establish the F0 or initial fluorescence (see Figure 1A,B).
When running the assay for an agonist, […] of the compound and […] of additional DPBS buffer was added to the wells. […] In either assay, the cannabinoid ligands were added, followed by incubation of the compound on the cells at 37 °C for 5 min before taking a fluorescence reading using the PHERAstar FSX microplate reader equipped with a GFP filter cube module (Ex. 485 nm/Em. 520 nm). The recorded values were the F or final fluorescence.
Statistical Methods: All GRABeCB2.0 fluorescent signals (in cases noted) are expressed as normalized ΔF/F0 as calculated for the fluorescence assay in the PHERAstar FSX Plate reader.

[5] abbreviates: read-out: GRABeCB2.0 IC50 0.5 mg/mL BSA.
Where [6] appears, read: reported, read-out: binding Ki (reported).

Usually Ki stands for a dissociation constant, usually derived from enzyme kinetics or from competition with a known ligand. The term EC50 denotes the concentration at which the effect is half-maximal.

Read-outs that look alike come from different tables or passages of the source. Where only a bound is given, the exact number is not on record here.

Consider `CC(=O)NC(=N)NC(=NS(=O)(=O)c1ccc(C(F)(F)F)cc1)N1C[C@@H](c2ccccc2)C(c2ccc(Cl)cc2)=N1` [R-MRI-1891], for which the “CB1 binding of R-enantiomers on the sensor” value on GRABeCB2.0 sensor [1] was “weak CB1 binding”.
As to `CC(C)[C@H](N=C(NS(=O)(=O)c1ccc(Cl)cc1)N1C[C@H](c2ccccc2)C(c2ccc(Cl)cc2)=N1)C(N)=O` [JD5037], the IC50 at GRABeCB2.0 sensor [1] (read-out: GRABeCB2.0 IC50) was 148 ± 12 nM; at GRABeCB2.0 sensor [1] (setting [5]), 29 ± 3.5 nM. Also, the Ki on CB1R (read-out: binding Ki on CB1R) was 0.5 nM.
Take `CCNC1(C(N)=O)CCN(c2ncnc3c2nc(-c2ccccc2Cl)n3-c2ccc(Cl)cc2)CC1` [Otenabant]: on CB1R (read-out: binding Ki for CB1R), the Ki was 0.7 nM. Further, the IC50 on CB1 receptor (read-out: reported IC50) is […].
As for `CC(=O)NC(=N)NC(=NS(=O)(=O)c1ccc(Cl)cc1)N1C[C@@H](c2ccccc2)C(c2ccc(Cl)cc2)=N1` [R-MRI-1776], at GRABeCB2.0 sensor [1], the “CB1 binding of R-enantiomers on the sensor” value is listed as “weak CB1 binding”.
For `O=[N+]([O-])C[C@H](c1ccccc1)c1c(-c2ccccc2)[nH]c2ccccc12` [GAT228], the “Effect on CP55940 fluorescence signal/maximal fluorescence” value on GRABeCB2.0 sensor [2] was “did not shift the fluorescence signal”.
Turning to Pregnenolone sulfate, on GRABeCB2.0 sensor [1], the “Effect on CP55940-activated GRABeCB2.0 fluorescence” value is “extinguished CP fluorescence but showed no concentration-dependent effects”.
As for `CCCCC/C=C\C/C=C\C/C=C\C/C=C\CCCC(=O)NCCCl` [ACEA, (5Z,8Z,11Z,14Z)-N-(2-chloroethyl)icosa-5,8,11,14-tetraenamide], the Ki on CB1R (Supplementary Table 1, # literature reported values, read-out: CB1R wild-type binding Ki) was 1.4 nM; at CB1R (read-out: Ki for CB1 receptor), 1.5 to 5 nM. In addition, the EC50 on CB1 receptor (read-out: reported EC50 for the CB1 receptor) was 51 nM.
Take `C=C(C)[C@@H]1CCC(C)=C[C@H]1c1c(O)cc(CCCCC)cc1O` [CBD, cannabidiol]: the “Effect on basal GRABeCB2.0 fluorescent signal (reported)” value on GRABeCB2.0 sensor [3] was “did not affect basal GRABeCB2.0 fluorescent signal”.
`CCc1c(C(=O)NCCc2ccc(N3CCCCC3)cc2)[nH]c2ccc(Cl)cc12` [ORG27569]: the “Effect on GRABeCB2.0 basal fluorescence” value on GRABeCB2.0 sensor [4] was “did not significantly alter basal fluorescence”. Also, at GRABeCB2.0 sensor [1], the “Effect on CP55940-activated GRABeCB2.0 fluorescence” value is listed as “void of any concentration-dependent effects”. Besides, on GRABeCB2.0 sensor [1] (read-out: IC50 as weak antagonists (normalized curve)), the IC50 amounted to 787 nM.
Consider `CC(=O)OCCn1c(=NC(=O)C2C(C)(C)C2(C)C)sc2cc(C)ccc21` [MRI-2687], for which the EC50 at GRABeCB2.0 sensor [4] worked out at 1300 nM.
As for `C/C(N)=N\C(=N/S(=O)(=O)c1ccc(C(F)(F)F)cc1)N1C[C@H](c2ccccc2)C(c2ccc(Cl)cc2)=N1` [MRI-1867], the IC50 was 105 ± 5.4 nM at GRABeCB2.0 sensor [1] (read-out: GRABeCB2.0 IC50); 90 ± 5 nM at GRABeCB2.0 sensor [1] (setting [5]); 40 nM on CB1 receptor (reported, read-out: functional potency IC50 (reported)). The Ki at CB1R (setting [6]) was 2.6 nM.
In the case of `O=[N+]([O-])C[C@@H](c1ccccc1)c1c(-c2ccccc2)[nH]c2ccccc12` [GAT229], at GRABeCB2.0 sensor [1], the “Effect on CP55940-activated GRABeCB2.0 fluorescence” value is listed as “more potent enhancer of sensor fluorescence than GAT228”. Besides, the “Effect on CP55940 fluorescence signal/maximal fluorescence” value at GRABeCB2.0 sensor [2] was “increased the maximal fluorescence”. Further, the “apparent α (Schild-like analysis)” value on GRABeCB2.0 sensor [2] (range of CP55940 concentrations) is recorded as more than 1.
In the case of `CC(=O)[C@H]1CC[C@H]2[C@@H]3CC=C4C[C@@H](O)CC[C@]4(C)[C@H]3CC[C@]12C` [Pregnenolone], the “Effect on GRABeCB2.0 basal fluorescence” value at GRABeCB2.0 sensor [4] is given as “did not significantly alter basal fluorescence”. At GRABeCB2.0 sensor [1], the “Effect on CP55940-activated GRABeCB2.0 fluorescence” value is recorded as “void of any concentration-dependent effects”. Also, the “Effect on 2-AG-activated GRABeCB2.0 fluorescence” value at GRABeCB2.0 sensor [1] (20 μM 2-AG) is “this behavior could be replicated”.
For the molecule `C[C@H](NC(=O)C(C)(C)Oc1ccc(C(F)(F)F)cn1)[C@@H](Cc1ccc(Cl)cc1)c1cccc(C#N)c1` [Taranabant], on CB1R (read-out: reported Ki), the Ki is 0.13 nM.
As to `CC(=O)OCCn1c(C)c(C)s/c1=N\C(=O)C1C(C)(C)C1(C)C` [MRI-2594], the EC50 at GRABeCB2.0 sensor [4] is 527 ± 27 nM.
For the molecule `CC(=O)NC(N)=NC(=NS(=O)(=O)c1ccc(C(F)(F)F)cc1)N1C[C@H](c2ccccc2)C(c2ccc(Cl)cc2)=N1` [MRI-1891], the Ki on CB1R (setting [6]) was 0.5 nM. Besides, the IC50 at CB1 receptor (printed after 'bias toward inhibition of the β-arrestin pathway, over G-protein signaling pathway', read-out: IC50 (reported)) was 6 nM.

Values taken from publication PMC11084632, “Pharmacological Evaluation of Cannabinoid Receptor Modulators Using GRABeCB2.0 Sensor” (International Journal of Molecular Sciences, 2024).
